We go through 5 molecules from patent US10226426B2, “Suspension containing nano-cocrystal and manufacturing method” (TAKEDA PHARMACEUTICAL COMPANY LIMITED, priority 2015, dated 2019).

Values after ≈ are worked out from the molar mass of the structure shown.

The conditions of data set [1]: value at 25° C. and 1 atm; cited from earlier work.
Data set [2] is described as follows: Powder X-ray diffractometry, crystallinity by the Hermans method. In kind it is physicochemical. As to the method: To be specific, powder samples (about 2 mg) were placed on a silicon sample plate, and scanned between 2 and 35 degrees (2θ) at a scan speed of 6 degrees/min. Powder samples such as nanoized FSD and the like were prepared by centrifuging suspensions thereof by cooling centrifugal machine Himac CR21G (manufactured by Hitachi Koki Co., Ltd.) at 19,000 rpm for 10 min and drying same. In addition, from the obtained X-ray diffraction patterns by the Hermans method, crystallinity before and after wet grinding was calculated.

Regarding `NC(N)=O` [urea], in data set [1], the water solubility is on record as 1,000 mg/mL. In the case of `NS(=O)(=O)c1cc(C(=O)O)c(NCc2ccco2)cc1Cl` [Furosemide, furosemide], in data set [2], the “crystallinity before wet grinding” value is reported as 85%. In addition, in data set [2] (wet grinding in 0.5% (w/v) HPMC and 0.02% (w/v) SDS), the “diffraction pattern before and after wet grinding (dissociation of cocrystal)” value was “did not show a marked difference in the diffraction pattern before and after the wet grinding”.

As for `O=C1NS(=O)(=O)c2ccccc21` [Saccharin, saccharin], the water solubility in data set [1] is reported as 3.4 mg/mL (≈ 18600 µM). For `COc1ccc2c(c1)c(CC(=O)O)c(C)n2C(=O)c1ccc(Cl)cc1` [indomethacin], the “crystallinity before wet grinding” value in data set [2] turned out to be 81%. Also, the water solubility in data set [1] is recorded as 0.0095 mg/mL (≈ 26.6 µM). As to `NC(=O)N1c2ccccc2C=Cc2ccccc21` [anhydrous carbamazepine, carbamazepine], the “crystallinity before wet grinding” value in data set [2] came out at 88%. For the same molecule, the “formation of hydrate by wet grinding” value in data set [2] (diffraction pattern after wet grinding) was “formation of CBZ dihydrate could be confirmed”. For the same molecule, the water solubility in data set [1] is listed as 0.22 mg/mL (≈ 931 µM).
